Results taken from PubChem BioAssay (NCI).
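Exposure lasted 48 hours, with cells grown in 96-well plates and compounds tested at five concentrations. The concentration for 50% growth inhibition is given as GI50. At the TGI there is no net growth.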 Where a SMILES comes first, the peptide text is derived from it. [ ]: non-standard residue; d: D form. The star is where a group is joined. ξ: configuration not given here. 4Abz = Nc1ccc(C(=O)O)cc1; ξL = CC(C)CC(N)C(=O)O; NHOH = ON*

Columns and labels:
Assay in all cases: growth of human tumour cells (NCI), 48 h
COLO 205 colon = system: COLO 205 colon
HL-60(TB) leukemia = system: HL-60(TB) leukemia
OVCAR-5 ovarian = system: OVCAR-5 ovarian
RPMI-8226 leukemia = system: RPMI-8226 leukemia
SF-268 CNS = system: SF-268 CNS
SK-MEL-28 melanoma = system: SK-MEL-28 melanoma
U251 CNS = system: U251 CNS
UACC-62 melanoma = system: UACC-62 melanoma
NCI-H522 lung = system: NCI-H522 lung
MDA-MB-435 = system: MDA-MB-435

COc1ccc(/C=N\N2C(=O)Cc3ccccc32)cc1
TGI (COLO 205 colon): > 100 µM
TGI (HL-60(TB) leukemia): > 100 µM
TGI (OVCAR-5 ovarian): > 100 µM
TGI (RPMI-8226 leukemia): > 100 µM
TGI (SF-268 CNS): > 100 µM
TGI (SK-MEL-28 melanoma): > 100 µM
TGI (U251 CNS): > 100 µM
TGI (UACC-62 melanoma): > 100 µM

CC(=O)OC1CC[C@@]2(C)C(CC(OC3OC(CO)C(O)C(O)C3O)[C@]3(C)C2CCC24CC23CC[C@H]4C(C)CC(O)[C@@H](O)C(C)(C)O)C1(C)C (stereo partly specified)
TGI (COLO 205 colon): 17.1 µM
TGI (HL-60(TB) leukemia): 24.9 µM
TGI (NCI-H522 lung): 16.2 µM
TGI (OVCAR-5 ovarian): > 50 µM
TGI (RPMI-8226 leukemia): 24.8 µM
TGI (SF-268 CNS): > 50 µM
TGI (SK-MEL-28 melanoma): 17.4 µM
TGI (U251 CNS): 17.4 µM
TGI (UACC-62 melanoma): 16.6 µM

COc1cc(OC)c(Oc2cccc(OC)c2OC)c(OC)c1
TGI (COLO 205 colon): > 100 µM
TGI (NCI-H522 lung): > 100 µM
TGI (OVCAR-5 ovarian): > 100 µM
TGI (SF-268 CNS): > 100 µM
TGI (SK-MEL-28 melanoma): > 100 µM
TGI (U251 CNS): > 100 µM
TGI (UACC-62 melanoma): > 100 µM

CC(C)CC(NC(=O)[C@@H]1CCCN1C(=O)CNC(=O)c1ccc(N)cc1)C(=O)N[C@H](C)C(=O)NO (stereo partly specified) (H-[4Abz]GP[ξL][dA]-{NHOH})
GI50 (COLO 205 colon): > 100 µM
TGI (COLO 205 colon): > 100 µM
GI50 (MDA-MB-435): > 100 µM
TGI (MDA-MB-435): > 100 µM
GI50 (NCI-H522 lung): > 100 µM
TGI (NCI-H522 lung): > 100 µM
GI50 (OVCAR-5 ovarian): > 100 µM
TGI (OVCAR-5 ovarian): > 100 µM
GI50 (SF-268 CNS): > 100 µM
TGI (SF-268 CNS): > 100 µM
GI50 (SK-MEL-28 melanoma): > 100 µM
TGI (SK-MEL-28 melanoma): > 100 µM
GI50 (U251 CNS): > 100 µM
TGI (U251 CNS): > 100 µM
GI50 (UACC-62 melanoma): > 100000 nM
TGI (UACC-62 melanoma): > 100 µM

COC1=C(C(=O)OC(C)(C)C)C23CCCCC2(C(C(=O)OC(C)(C)C)=C(OC)C3C(=O)OC(C)(C)C)C1C(=O)OC(C)(C)C (stereo unspecified)
TGI (COLO 205 colon): 32.8 µM
TGI (HL-60(TB) leukemia): 63.1 µM
TGI (NCI-H522 lung): > 100 µM
TGI (OVCAR-5 ovarian): > 100 µM
TGI (RPMI-8226 leukemia): > 100 µM
TGI (SF-268 CNS): > 100 µM
TGI (U251 CNS): > 100 µM
TGI (UACC-62 melanoma): > 100 µM

Nc1ccc(Cl)cc1.Nc1ccc(Cl)cc1.Nc1ccc(Cl)cc1.O=C([O-])C(=O)[O-].O=C([O-])C(=O)[O-].[H+].[Ru+5]
GI50 (COLO 205 colon): 0.0362 µM
TGI (COLO 205 colon): 0.169 µM
GI50 (HL-60(TB) leukemia): 104 nM
TGI (HL-60(TB) leukemia): > 87.8 µM
TGI (NCI-H522 lung): > 100 µM
GI50 (RPMI-8226 leukemia): 147 nM
TGI (RPMI-8226 leukemia): > 100 µM
GI50 (SF-268 CNS): > 100 µM
TGI (SF-268 CNS): > 100 µM
TGI (SK-MEL-28 melanoma): > 100 µM
GI50 (U251 CNS): 0.938 µM
TGI (U251 CNS): > 100 µM
GI50 (UACC-62 melanoma): < 17.4 nM

COc1ncn(C2C=C(CO)C(O)C2O)c(=O)n1 (stereo unspecified)
TGI (COLO 205 colon): > 100 µM
TGI (HL-60(TB) leukemia): > 100 µM
TGI (NCI-H522 lung): > 100 µM
TGI (RPMI-8226 leukemia): > 100 µM
TGI (SF-268 CNS): > 100 µM
TGI (SK-MEL-28 melanoma): > 100 µM
TGI (U251 CNS): > 100 µM
TGI (UACC-62 melanoma): > 100 µM

O=C1/C=C(/c2ccc(O)cc2)[C@H](O)Cc2ccc(OC3OC(CO)C(O)C(O)C3O)cc2O1 (stereo partly specified) (tested in a mixture with another compound)
TGI (COLO 205 colon): > 100 µM
TGI (HL-60(TB) leukemia): > 100 µM
TGI (NCI-H522 lung): > 100 µM
TGI (OVCAR-5 ovarian): > 100 µM
TGI (RPMI-8226 leukemia): > 100 µM
TGI (SF-268 CNS): > 100 µM
TGI (U251 CNS): > 100 µM
TGI (UACC-62 melanoma): > 100 µM

Cc1cc(C)c(-c2noc(-c3ccc(Cl)cc3)c2C2=NCCN2)c(C)c1
TGI (COLO 205 colon): 35.2 µM
TGI (HL-60(TB) leukemia): 46.4 µM
TGI (OVCAR-5 ovarian): > 100 µM
TGI (RPMI-8226 leukemia): 50.6 µM
TGI (SF-268 CNS): 37.4 µM
TGI (SK-MEL-28 melanoma): 36.9 µM
TGI (U251 CNS): 34.3 µM
TGI (UACC-62 melanoma): 33.8 µM

Cn1c(=O)c(C2c3ccccc3Oc3c2c(=O)n(C)c2ccccc32)c(O)c2ccccc21 (stereo unspecified)
TGI (COLO 205 colon): > 100 µM
TGI (HL-60(TB) leukemia): 79.2 µM
TGI (NCI-H522 lung): 54.6 µM
TGI (OVCAR-5 ovarian): > 100 µM
TGI (RPMI-8226 leukemia): > 100 µM
TGI (SF-268 CNS): > 100 µM
TGI (SK-MEL-28 melanoma): > 100 µM
TGI (U251 CNS): > 100 µM
TGI (UACC-62 melanoma): > 100 µM

O=C(Nc1ccc(Cl)cc1Cl)c1c/c(=N\O)c2ccc(O)cc2o1
TGI (COLO 205 colon): > 100 µM
TGI (HL-60(TB) leukemia): > 100 µM
TGI (NCI-H522 lung): > 100 µM
TGI (OVCAR-5 ovarian): > 100 µM
TGI (RPMI-8226 leukemia): > 100 µM
TGI (SF-268 CNS): > 100 µM
TGI (SK-MEL-28 melanoma): > 100 µM
TGI (U251 CNS): > 100 µM
TGI (UACC-62 melanoma): > 100 µM

O=C1C=Cc2cc3ccccc3c3cccc1c23
GI50 (COLO 205 colon): 8.41 µM
TGI (COLO 205 colon): > 100 µM
GI50 (MDA-MB-435): 16.3 µM
TGI (MDA-MB-435): 70.7 µM
GI50 (NCI-H522 lung): 8.6 µM
TGI (NCI-H522 lung): > 100 µM
GI50 (OVCAR-5 ovarian): 3.44 µM
TGI (OVCAR-5 ovarian): 27.5 µM
GI50 (RPMI-8226 leukemia): 2620 nM
TGI (RPMI-8226 leukemia): 8.5 µM
GI50 (SF-268 CNS): 4.55 µM
TGI (SF-268 CNS): 27 µM
GI50 (SK-MEL-28 melanoma): 10.5 µM
TGI (SK-MEL-28 melanoma): > 100 µM
GI50 (U251 CNS): 4.38 µM
TGI (U251 CNS): 43.1 µM
GI50 (UACC-62 melanoma): 1810 nM
TGI (UACC-62 melanoma): 6.43 µM

COc1ccccc1NC(=O)CC(=O)NNCC(=O)Nc1nc(-c2ccccc2)cs1
TGI (COLO 205 colon): > 100 µM
TGI (HL-60(TB) leukemia): > 100 µM
TGI (NCI-H522 lung): > 100 µM
TGI (RPMI-8226 leukemia): > 100 µM
TGI (SF-268 CNS): > 100 µM
TGI (SK-MEL-28 melanoma): > 100 µM
TGI (U251 CNS): > 100 µM
TGI (UACC-62 melanoma): > 100 µM

COC(=O)C(=O)C(C(=O)C(=O)Nc1ccc(Cl)cc1Cl)c1nc2ccc(Cl)cc2[nH]c1=O (stereo unspecified)
TGI (COLO 205 colon): > 100 µM
TGI (HL-60(TB) leukemia): > 100 µM
TGI (MDA-MB-435): > 100 µM
TGI (NCI-H522 lung): > 100 µM
TGI (OVCAR-5 ovarian): > 100 µM
TGI (SF-268 CNS): > 100 µM
TGI (SK-MEL-28 melanoma): > 100 µM
TGI (U251 CNS): > 100 µM
TGI (UACC-62 melanoma): > 100 µM

CCCCc1c2c(nc3c1CCc1cc(C=O)c(N)nc1-3)/C(=C/c1ccccc1)CCC2
TGI (COLO 205 colon): 32.3 µM
TGI (HL-60(TB) leukemia): > 100 µM
TGI (NCI-H522 lung): > 100 µM
TGI (OVCAR-5 ovarian): > 100 µM
TGI (RPMI-8226 leukemia): > 100 µM
TGI (SF-268 CNS): > 100 µM
TGI (SK-MEL-28 melanoma): > 100 µM
TGI (U251 CNS): > 100 µM
TGI (UACC-62 melanoma): > 100 µM

Cc1c(Br)cccc1NC(=O)c1sc2nc3c(cc2c1N)CN(Cc1ccccc1)CC3
GI50 (HL-60(TB) leukemia): 161 nM
TGI (HL-60(TB) leukemia): 0.456 µM
GI50 (MDA-MB-435): 0.0366 µM
TGI (MDA-MB-435): 0.141 µM
GI50 (NCI-H522 lung): 0.108 µM
TGI (NCI-H522 lung): > 50 µM
GI50 (OVCAR-5 ovarian): 0.289 µM
TGI (OVCAR-5 ovarian): > 50 µM
GI50 (SF-268 CNS): 0.525 µM
TGI (SF-268 CNS): 27.2 µM
GI50 (SK-MEL-28 melanoma): 0.977 µM
TGI (SK-MEL-28 melanoma): > 50 µM
GI50 (U251 CNS): 0.242 µM
TGI (U251 CNS): 5.58 µM
GI50 (UACC-62 melanoma): 372 nM
TGI (UACC-62 melanoma): > 50 µM

N#CC1(Cc2ccccc2Cl)c2ccccc2C=CN1C(=O)c1ccccc1 (stereo unspecified)
TGI (COLO 205 colon): > 100 µM
TGI (HL-60(TB) leukemia): > 100 µM
TGI (NCI-H522 lung): > 100 µM
TGI (OVCAR-5 ovarian): > 100 µM
TGI (RPMI-8226 leukemia): > 100 µM
TGI (SF-268 CNS): > 100 µM
TGI (SK-MEL-28 melanoma): > 100 µM
TGI (U251 CNS): > 100 µM
TGI (UACC-62 melanoma): > 100 µM

CCCCCCCCOCC(O)COC (stereo unspecified)
TGI (COLO 205 colon): > 100 µM
TGI (HL-60(TB) leukemia): > 100 µM
TGI (OVCAR-5 ovarian): > 100 µM
TGI (RPMI-8226 leukemia): > 100 µM
TGI (SF-268 CNS): > 100 µM
TGI (SK-MEL-28 melanoma): > 100 µM
TGI (U251 CNS): > 100 µM
TGI (UACC-62 melanoma): > 100 µM

COC(=O)C1=C(O)C(C(=O)OC)[C@@]2(O)[C@@H](C(=O)OC)C(c3ccc(OC(=O)C(Cc4ccccc4)NC(C)=O)cc3)C[C@@H]1[C@@H]2C(=O)OC (stereo partly specified)
GI50 (COLO 205 colon): 27.9 µM
TGI (COLO 205 colon): > 100 µM
GI50 (MDA-MB-435): 23.5 µM
TGI (MDA-MB-435): 50.2 µM
GI50 (NCI-H522 lung): 28.3 µM
TGI (NCI-H522 lung): > 100 µM
GI50 (OVCAR-5 ovarian): 35 µM
TGI (OVCAR-5 ovarian): 97.3 µM
GI50 (RPMI-8226 leukemia): 20600 nM
TGI (RPMI-8226 leukemia): 71.4 µM
GI50 (SF-268 CNS): 21.9 µM
TGI (SF-268 CNS): 88.3 µM
GI50 (U251 CNS): 15.9 µM
TGI (U251 CNS): 32.8 µM
GI50 (UACC-62 melanoma): 16100 nM
TGI (UACC-62 melanoma): 40.9 µM
